Experimental data published in PMC3591093, “De novo modeling of the F420-reducing [NiFe]-hydrogenase from a methanogenic archaeon by cryo-electron microscopy” (eLife, 2013).

Experiments:
[1] = target: T1, Frh complex (FrhABG), F420-reducing [NiFe]-hydrogenase (Methanothermobacter marburgensis, UniProt D9PYF6); assay: cryo-EM structure; type: binding; settings: 25 uM FAD in purification buffers; site in FrhB near the [4Fe-4S] cluster; ribose and ribitol density missing
T1 construct: gene frhB; FrhA C-terminus after His386 removed in maturation; FrhG most probably starts at Val39 of the 275-residue annotation; FrhA 45, FrhG 26, FrhB 31 kDa; with Coenzyme F420 hydrogenase subunit alpha; Coenzyme F420 hydrogenase subunit gamma
T1 sequence (D9PYF6 1-281): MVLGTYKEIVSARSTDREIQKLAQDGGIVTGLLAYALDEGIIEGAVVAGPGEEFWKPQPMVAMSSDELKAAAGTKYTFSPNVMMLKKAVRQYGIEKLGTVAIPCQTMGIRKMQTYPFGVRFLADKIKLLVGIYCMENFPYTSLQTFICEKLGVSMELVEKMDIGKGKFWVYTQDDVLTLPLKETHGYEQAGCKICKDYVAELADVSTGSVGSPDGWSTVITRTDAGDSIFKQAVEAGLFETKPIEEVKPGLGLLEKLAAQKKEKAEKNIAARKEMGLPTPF
T1 sequence (D9PYF9 1-386 partner): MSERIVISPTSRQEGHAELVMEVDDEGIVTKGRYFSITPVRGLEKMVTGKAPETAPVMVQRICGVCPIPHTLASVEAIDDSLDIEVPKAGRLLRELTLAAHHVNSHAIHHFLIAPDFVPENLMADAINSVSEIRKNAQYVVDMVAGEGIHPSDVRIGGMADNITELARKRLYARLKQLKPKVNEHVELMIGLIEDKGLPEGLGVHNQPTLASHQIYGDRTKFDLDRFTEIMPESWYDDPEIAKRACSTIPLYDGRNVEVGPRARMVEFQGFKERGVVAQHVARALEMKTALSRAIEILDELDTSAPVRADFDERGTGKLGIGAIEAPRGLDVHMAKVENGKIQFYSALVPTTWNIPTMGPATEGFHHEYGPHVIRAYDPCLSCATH
T1 sequence (D9PYF7 40-275 partner): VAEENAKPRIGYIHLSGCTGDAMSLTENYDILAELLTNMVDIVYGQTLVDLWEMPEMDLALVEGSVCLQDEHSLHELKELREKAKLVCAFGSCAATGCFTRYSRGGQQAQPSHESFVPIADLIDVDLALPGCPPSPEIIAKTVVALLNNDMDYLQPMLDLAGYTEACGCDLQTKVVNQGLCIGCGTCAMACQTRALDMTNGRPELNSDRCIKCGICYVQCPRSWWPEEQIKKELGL

[2] = target: T1, Frh complex (FrhABG), F420-reducing [NiFe]-hydrogenase; assay: cryo-EM structure (map with versus without F420); type: binding; settings: 0.5, 1.0 or 10 mM F420, oxygen-free; site in FrhB next to FAD isoalloxazine; only the isoalloxazine-like ring modelled, weak density

Compound | cryo-EM structure [1] | cryo-EM structure (map with versus without F420) [2]
Cc1cc2nc3c(=O)[nH]c(=O)nc-3n(C[C@H](O)[C@H](O)[C@H](O)COP(=O)(O)OP(=O)(O)OC[C@H]3O[C@@H](n4cnc5c(N)ncnc54)[C@H](O)[C@@H]3O)c2cc1C [FAD] | could be interpreted as the isoalloxazine ring of the FAD cofactor | 
C[C@H](OP(=O)(O)OC[C@@H](O)[C@@H](O)[C@@H](O)Cn1c2nc(=O)[nH]c(=O)c-2cc2ccc(O)cc21)C(=O)N[C@@H](CCC(=O)N[C@@H](CCC(=O)O)C(=O)O)C(=O)O [F420] |  | We conclude that it represents the isoalloxazine ring of the F420 substrate.
